# From patent publication US12522595B2, “Bicyclic ether O-glycoprotein-2-acetamido-2-deoxy-3-D-glucopyranosidase inhibitors” (BIOGEN MA INC., priority 2019, dated 2026)
# Target: T1, Recombinant full length human OGA enzyme (Homo sapiens, UniProt O60502)
# T1 construct: Recombinant full length human OGA enzyme was purchased from Origene; purchased Origene
# T1 sequence (O60502 1-916): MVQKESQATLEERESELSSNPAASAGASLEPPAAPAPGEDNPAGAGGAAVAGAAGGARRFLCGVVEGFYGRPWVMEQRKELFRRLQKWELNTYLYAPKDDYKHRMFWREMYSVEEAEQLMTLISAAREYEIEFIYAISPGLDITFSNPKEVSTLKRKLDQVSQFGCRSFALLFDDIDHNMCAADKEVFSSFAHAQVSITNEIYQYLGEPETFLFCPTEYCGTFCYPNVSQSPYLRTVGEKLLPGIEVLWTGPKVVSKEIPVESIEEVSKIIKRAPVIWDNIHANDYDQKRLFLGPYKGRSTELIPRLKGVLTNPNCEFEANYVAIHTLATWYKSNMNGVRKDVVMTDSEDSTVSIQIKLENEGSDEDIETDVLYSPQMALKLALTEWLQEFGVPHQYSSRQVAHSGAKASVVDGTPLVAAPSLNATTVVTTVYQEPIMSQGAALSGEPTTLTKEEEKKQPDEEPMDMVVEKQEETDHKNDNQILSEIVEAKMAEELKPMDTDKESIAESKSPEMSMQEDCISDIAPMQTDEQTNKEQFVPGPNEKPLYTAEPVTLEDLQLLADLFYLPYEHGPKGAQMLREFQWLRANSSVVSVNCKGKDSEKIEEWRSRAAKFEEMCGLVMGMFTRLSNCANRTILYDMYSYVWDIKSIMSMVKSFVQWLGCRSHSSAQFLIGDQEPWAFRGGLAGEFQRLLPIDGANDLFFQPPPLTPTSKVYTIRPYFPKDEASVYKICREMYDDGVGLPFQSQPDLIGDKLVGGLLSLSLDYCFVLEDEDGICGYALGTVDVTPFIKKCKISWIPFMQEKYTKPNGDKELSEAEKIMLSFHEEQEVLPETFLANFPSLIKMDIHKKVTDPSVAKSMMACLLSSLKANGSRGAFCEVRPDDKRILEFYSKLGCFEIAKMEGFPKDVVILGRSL
# Test: OGA enzyme inhibition biochemical assay
# Conditions: 1 nM OGA, 100 μM 4-MUGlcNAc (Km), pH 6.4, 90 minutes at room temperature, 10-point dose-response from 20 μM
# Protocol: N-(5-(((2S,4R)-4-([1,2,4]triazolo[4,3-a]pyrazin-3-yloxy)-2-methylpyrrolidin-1-yl)methyl)-4-fluorothiazol-2-yl)acetamide: The title compound was prepared in an analogous manner as Example 172 from 3-bromo-[1,2,4]triazolo[4,3-a]pyrazine. LCMS (ESI): [M+H] 392. ^1H NMR (600 MHz, CHLOROFORM-d) δ 10.75 (br s, 1H), 9.04 (s, 1H), 9.03 (s, 1H), 7.24 (s, 1H), 4.99-5.06 (m, 1H), 4.01 (d, J=14.49 Hz, 1H), 3.64 (d, J=14.67 Hz, 1H), 3.40 (d, J=11.55 Hz, 1H), 2.75 (dd, J=5.78, 11.46 Hz, 1H), 2.61-2.72 (m, 2H), 2.32 (s, 4H), 1.84-1.92 (m, 1H), 1.30 (d, J=5.87 Hz, 4H). ^19F NMR (565 MHz, CHLOROFORM-d) 6-115.92 (br s, 1F). OGA Enzyme Inhibition Biochemical Assay
# Recombinant full length human OGA enzyme was purchased from Origene. 4-MUGlCNAc substrate was purchased from Sigma. All other reagents were purchased from Sigma or Fisher. Assay buffer consists of the McIlvaine buffer system, pH 6.4 (0.2M Na2HPO4 mixed with 0.1M citric acid) and 0.01% BSA. Reactions consist of 1 nM OGA, 100 μM 4-MUGlcNAc (Km), and compound in a final volume of 10 μl. Reactions were incubated for 90 minutes at room temperature and quenched with 40 μl of 3M glycine, pH 10 and read on a Perkin Elmer Envision plate reader (Ex: 355 nm/Em: 460 nm). Compounds were tested with a 10-point dose-response starting from 20 μM with a 4-fold dilution. Data, as presented in Table 1 below, was fit using GraphPad Prism using a 4-parameter fit with variable slope.
row,Structure (SMILES),IC50 [nM]
1,"CC(=O)Nc1ncc(CN2C[C@H](Oc3ccc4cccnc4n3)C[C@@H]2C)s1 [Example 81, N-(5-(((2S,4R)-4-((1,8-naphthyridin-2-yl)oxy)-2-methylpyrrolidin-1-yl)methyl)thiazol-2-yl)acetamide]",< 1
2,"CC(=O)Nc1nc(F)c(CN2C[C@H](Oc3ccc4nnn(C)c4n3)C[C@@H]2C)s1 [Example 150, N-(4-fluoro-5-(((2S,4R)-2-methyl-4-((3-methyl-3H-[1,2,3]triazolo[4,5-b]pyridin-5-yl)oxy)pyrrolidin-1-yl)methyl)thiazol-2-yl)acetamide]",< 1
3,"CC(=O)Nc1ncc(CN2C[C@H](Oc3cc4nccn4cn3)C[C@@H]2C)s1 [Example 39, N-(5-(((2S,4R)-4-(imidazo[1,2-c]pyrimidin-7-yloxy)-2-methylpyrrolidin-1-yl)methyl)thiazol-2-yl)acetamide]",< 1
4,"CC(=O)Nc1ncc(CN2C[C@H](Oc3cccn4ccnc34)C[C@@H]2C)s1 [Example 156, N-(5-(((2S,4R)-4-(imidazo[1,2-a]pyridin-8-yloxy)-2-methylpyrrolidin-1-yl)methyl)thiazol-2-yl)acetamide]",< 1
5,"CC(=O)Nc1ncc(CN2C[C@H](Oc3nccc4sccc34)C[C@@H]2C)s1 [Example 24, N-(5-(((2S,4R)-2-methyl-4-(thieno[3,2-c]pyridin-4-yloxy)pyrrolidin-1-yl)methyl)thiazol-2-yl)acetamide]",2.5
6,"CC(=O)Nc1ncc(CN2C[C@H](Oc3nccn4nc(C(F)(F)F)cc34)C[C@@H]2C)s1 [Example 28, N-(5-(((2S,4R)-2-methyl-4-((2-(trifluoromethyl)pyrazolo[1,5-a]pyrazin-4-yl)oxy)pyrrolidin-1-yl)methyl)thiazol-2-yl)acetamide]",5.4
7,"CC(=O)Nc1ncc(CN2C[C@H](Oc3cc4cnn(C)c4cn3)C[C@@H]2C)s1 [Example 88, N-(5-(((2S,4R)-2-methyl-4-((1-methyl-1H-pyrazolo[3,4-c]pyridin-5-yl)oxy)pyrrolidin-1-yl)methyl)thiazol-2-yl)acetamide]",< 1
8,"CC(=O)Nc1ncc(CN2C[C@H](Oc3nccc4cc(F)ccc34)C[C@@H]2C)s1 [Example 27, N-(5-(((2S,4R)-4-((6-fluoroisoquinolin-1-yl)oxy)-2-methylpyrrolidin-1-yl)methyl)thiazol-2-yl)acetamide]",4
9,"CC(=O)Nc1ncc(CN2C[C@H](Oc3cc(C(F)(F)F)c4cn(C)nc4n3)C[C@@H]2C)s1 [Example 12, N-(5-(((2S,4R)-2-methyl-4-((2-methyl-4-(trifluoromethyl)-2H-pyrazolo[3,4-b]pyridin-6-yl)oxy)pyrrolidin-1-yl)methyl)thiazol-2-yl)acetamide]",< 1
10,"CC(=O)Nc1ncc(CN2C[C@H](Oc3ccc4cn(C)nc4c3)C[C@@H]2C)s1 [Example 52, N-(5-(((2S,4R)-2-methyl-4-((2-methyl-2H-indazol-6-yl)oxy)pyrrolidin-1-yl)methyl)thiazol-2-yl)acetamide]",< 1
11,"CC(=O)Nc1ncc(CN2C[C@H](Oc3ccnc4nn(C)cc34)C[C@@H]2C)s1 [Example 85, N-(5-(((2S,4R)-2-methyl-4-((2-methyl-2H-pyrazolo[3,4-b]pyridin-4-yl)oxy)pyrrolidin-1-yl)methyl)thiazol-2-yl)acetamide]",< 1

# Other lines, results leading:
row,IC50 [nM],Structure (SMILES)
1,< 1,"COc1cc2ccnc(Cl)c2cc1O[C@@H]1C[C@H](C)N(Cc2sc(NC(C)=O)nc2F)C1 [Example 132, N-(5-(((2S,4R)-4-((1-chloro-6-methoxyisoquinolin-7-yl)oxy)-2-methylpyrrolidin-1-yl)methyl)-4-fluorothiazol-2-yl)acetamide]"
2,< 1,"CC(=O)Nc1nc(F)c(CN2C[C@H](Oc3cncc4nccn34)C[C@@H]2C)s1 [Example 100, N-(4-fluoro-5-(((2S,4R)-4-(imidazo[1,2-a]pyrazin-5-yloxy)-2-methylpyrrolidin-1-yl)methyl)thiazol-2-yl)acetamide]"
3,< 1,"CC(=O)Nc1nc(F)c(CN2C[C@H](Oc3cccn4nccc34)C[C@@H]2C)s1 [Example 141, N-(4-fluoro-5-(((2S,4R)-2-methyl-4-(pyrazolo[1,5-a]pyridin-4-yloxy)pyrrolidin-1-yl)methyl)thiazol-2-yl)acetamide]"
4,1.2,"CC(=O)Nc1nc(F)c(CN2C[C@H](Oc3nccc4occc34)C[C@@H]2C)s1 [Example 70, N-(4-fluoro-5-(((2S,4R)-4-(furo[3,2-c]pyridin-4-yloxy)-2-methylpyrrolidin-1-yl)methyl)thiazol-2-yl)acetamide]"
5,< 1,"CC(=O)Nc1nc(F)c(CN2C[C@H](Oc3ccc4nn(C)cc4c3)C[C@@H]2C)s1 [Example 50, N-(4-fluoro-5-(((2S,4R)-2-methyl-4-((2-methyl-2H-indazol-5-yl)oxy)pyrrolidin-1-yl)methyl)thiazol-2-yl)acetamide]"
6,< 1,"CC(=O)Nc1nc(F)c(CN2C[C@H](Oc3ncnc4cnccc34)C[C@@H]2C)s1 [Example 118, N-(4-fluoro-5-(((2S,4R)-2-methyl-4-(pyrido[3,4-d]pyrimidin-4-yloxy)pyrrolidin-1-yl)methyl)thiazol-2-yl)acetamide]"
7,< 1,"CC(=O)Nc1nc(F)c(CN2C[C@H](Oc3ncnc4ccoc34)C[C@@H]2C)s1 [Example 94, N-(4-fluoro-5-(((2S,4R)-4-(furo[3,2-d]pyrimidin-4-yloxy)-2-methylpyrrolidin-1-yl)methyl)thiazol-2-yl)acetamide]"
8,2.6,"CC(=O)Nc1nc(F)c(CN2C[C@H](Oc3nnc4cnccn34)C[C@@H]2C)s1 [Example 174, N-(5-(((2S,4R)-4-([1,2,4]triazolo[4,3-a]pyrazin-3-yloxy)-2-methylpyrrolidin-1-yl)methyl)-4-fluorothiazol-2-yl)acetamide]"
9,3.8,"CC(=O)Nc1nc(F)c(CN2C[C@H](Oc3nccc4nccnc34)C[C@@H]2C)s1 [Example 115, N-(4-fluoro-5-(((2S,4R)-2-methyl-4-(pyrido[3,4-b]pyrazin-5-yloxy)pyrrolidin-1-yl)methyl)thiazol-2-yl)acetamide]"
10,< 1,"CC(=O)Nc1nc(F)c(CN2C[C@H](Oc3ccc4occc4n3)C[C@@H]2C)s1 [Example 66, N-(4-fluoro-5-(((2S,4R)-4-(furo[3,2-b]pyridin-5-yloxy)-2-methylpyrrolidin-1-yl)methyl)thiazol-2-yl)acetamide]"
11,< 1,"CC(=O)Nc1nc(F)c(CN2C[C@H](Oc3nccc4nn(C)cc34)C[C@@H]2C)s1 [Example 136, N-(4-fluoro-5-(((2S,4R)-2-methyl-4-((2-methyl-2H-pyrazolo[4,3-c]pyridin-4-yl)oxy)pyrrolidin-1-yl)methyl)thiazol-2-yl)acetamide]"
12,< 1,"CC(=O)Nc1nc(F)c(CN2C[C@H](Oc3nccc4ncccc34)C[C@@H]2C)s1 [Example 114, N-(5-(((2S,4R)-4-((1,6-naphthyridin-5-yl)oxy)-2-methylpyrrolidin-1-yl)methyl)-4-fluorothiazol-2-yl)acetamide]"
13,< 1,"COc1cnc2c(O[C@@H]3C[C@H](C)N(Cc4sc(NC(C)=O)nc4F)C3)cnn2c1 [Example 121, N-(4-fluoro-5-(((2S,4R)-4-((6-methoxypyrazolo[1,5-a]pyrimidin-3-yl)oxy)-2-methylpyrrolidin-1-yl)methyl)thiazol-2-yl)acetamide]"
